Experimental data taken from ChEMBL document CHEMBL1201862, “PubChem BioAssay data set” (2004).
One block for each compound: values may come before it. Active and inactive are the calls of the source.

Tests used:
[1] = target: FAD-linked sulfhydryl oxidase ALR (Homo sapiens, UniProt P55789); experiment: ALR-catalysed DTT oxidation blockers – biochemical, H2O2 detection, luminescence, cherry-pick, dose response (AID 493248)
[2] = viability of uninfected HEp-2 cells – cell-based, HTS, cytotoxicity control for RSV inhibitor project, dose response (AID 2410); type: functional; settings: human respiratory syncytial virus
[3] = system: P388; experiment: cells; type: functional; settings: Mus musculus
[4] = system: P388/ADR; experiment: cells; type: functional; settings: Mus musculus
[5] = system: SN12K1; experiment: cells; type: functional; settings: Homo sapiens
[6] = HIV-1 AD8 envelope cell-cell fusion blockers – cherry-pick, dose response (AID 652062); type: functional, cell-based;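 also: luciferase signal from cell-cell fusion driven by HIV-1 clade B AD8 Env; potency is for inhibitors of fusion seen as a drop in luminescence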
[7] = blockers of HIV-1 ZM109 envelope-driven cell-cell fusion – HeLa effector, CEM target cells, luciferase, cherry-pick, dose response (AID 652058); type: functional, cell-based;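 also: luciferase signal from HIV-1 Env mediated cell-cell fusion of effector and target cells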
[8] = target: T1, Cytochrome P450 2C9 (Homo sapiens, UniProt P11712)
T1 sequence (P11712 whole entry): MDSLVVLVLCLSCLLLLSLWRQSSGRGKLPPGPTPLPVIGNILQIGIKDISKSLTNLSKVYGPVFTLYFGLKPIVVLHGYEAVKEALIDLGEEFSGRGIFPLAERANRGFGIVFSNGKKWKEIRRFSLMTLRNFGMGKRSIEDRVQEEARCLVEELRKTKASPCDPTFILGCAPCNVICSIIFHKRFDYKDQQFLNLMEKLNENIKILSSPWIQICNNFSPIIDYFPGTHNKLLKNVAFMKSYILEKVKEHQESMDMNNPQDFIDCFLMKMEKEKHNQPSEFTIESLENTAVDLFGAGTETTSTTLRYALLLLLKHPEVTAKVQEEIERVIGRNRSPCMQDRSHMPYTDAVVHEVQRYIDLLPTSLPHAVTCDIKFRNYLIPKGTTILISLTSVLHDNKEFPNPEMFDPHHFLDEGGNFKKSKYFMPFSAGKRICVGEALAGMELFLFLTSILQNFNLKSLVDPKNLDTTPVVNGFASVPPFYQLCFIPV

[9] = target: T2, Cytochrome P450 1A2 (Homo sapiens, UniProt P05177);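 also: PubChem cytochrome P450 panel assay, CYP1A2 panel member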
T2 sequence (P05177 whole entry): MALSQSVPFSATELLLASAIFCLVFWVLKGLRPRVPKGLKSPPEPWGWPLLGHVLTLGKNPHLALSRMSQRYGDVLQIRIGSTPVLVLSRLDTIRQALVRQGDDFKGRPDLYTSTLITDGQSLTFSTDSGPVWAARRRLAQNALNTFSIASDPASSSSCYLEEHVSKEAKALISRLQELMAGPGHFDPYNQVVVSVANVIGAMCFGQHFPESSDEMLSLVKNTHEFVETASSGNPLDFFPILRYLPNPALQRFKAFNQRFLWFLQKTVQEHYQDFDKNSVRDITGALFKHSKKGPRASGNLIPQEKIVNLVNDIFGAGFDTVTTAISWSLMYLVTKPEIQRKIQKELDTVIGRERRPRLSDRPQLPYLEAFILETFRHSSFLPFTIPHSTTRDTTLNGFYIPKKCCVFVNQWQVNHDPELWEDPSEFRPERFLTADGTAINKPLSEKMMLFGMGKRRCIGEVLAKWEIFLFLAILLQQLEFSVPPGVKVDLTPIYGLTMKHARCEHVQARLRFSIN

[10] = intracellular Trypanosoma cruzi inhibitors in host cells – cell-based, plate reader, cherry-pick samples, set 3, dose response (AID 651818); type: functional;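 also: compounds incubated with infected cells for about four days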
[11] = target: Cytochrome P450 2C19 (Homo sapiens, UniProt P33261); experiment: Cytochrome panel assay with activity outcomes. Panel member name: p450-cyp2c19 Compounds with AC50 equal or less than 10 uM are considered active; type: functional; settings: read-out: AC50
Sequence of Cytochrome P450 2C19 (P33261 whole entry): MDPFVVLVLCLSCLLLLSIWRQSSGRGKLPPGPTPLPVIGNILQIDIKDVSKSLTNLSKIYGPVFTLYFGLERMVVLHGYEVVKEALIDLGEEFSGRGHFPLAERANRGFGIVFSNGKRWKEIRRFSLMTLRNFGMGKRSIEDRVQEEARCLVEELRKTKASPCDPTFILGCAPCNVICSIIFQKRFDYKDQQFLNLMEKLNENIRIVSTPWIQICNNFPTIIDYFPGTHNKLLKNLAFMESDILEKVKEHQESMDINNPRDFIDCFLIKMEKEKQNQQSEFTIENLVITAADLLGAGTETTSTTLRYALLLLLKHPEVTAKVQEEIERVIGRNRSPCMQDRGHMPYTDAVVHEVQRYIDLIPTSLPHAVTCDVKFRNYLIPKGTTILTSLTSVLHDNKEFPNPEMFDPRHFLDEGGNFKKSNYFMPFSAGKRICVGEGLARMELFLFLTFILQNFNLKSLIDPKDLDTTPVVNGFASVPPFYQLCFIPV

[12] = target: Cytochrome P450 3A4 (Homo sapiens, UniProt P08684);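 also: CYP3A4 tested as one member of a cytochrome P450 panel screen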
Sequence of Cytochrome P450 3A4 (P08684 whole entry): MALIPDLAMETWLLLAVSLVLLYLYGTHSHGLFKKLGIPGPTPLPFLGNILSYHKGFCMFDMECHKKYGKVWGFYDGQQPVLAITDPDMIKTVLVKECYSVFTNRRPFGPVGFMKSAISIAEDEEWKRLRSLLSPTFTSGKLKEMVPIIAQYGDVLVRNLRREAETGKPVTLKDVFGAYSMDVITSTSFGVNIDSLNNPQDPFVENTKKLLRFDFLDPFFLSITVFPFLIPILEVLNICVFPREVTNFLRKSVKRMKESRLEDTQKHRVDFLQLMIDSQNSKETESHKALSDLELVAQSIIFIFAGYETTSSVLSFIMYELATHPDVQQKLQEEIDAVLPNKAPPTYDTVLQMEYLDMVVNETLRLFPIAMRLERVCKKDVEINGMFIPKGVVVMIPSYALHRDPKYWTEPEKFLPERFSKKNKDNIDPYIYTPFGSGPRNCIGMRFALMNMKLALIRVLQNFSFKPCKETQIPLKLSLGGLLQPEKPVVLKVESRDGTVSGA

[13] = target: Dual specificity tyrosine-phosphorylation-regulated kinase 1A (Rattus norvegicus, UniProt Q63470); type: biochemical, Homo sapiens
[14] = target: Induced myeloid leukemia cell differentiation protein Mcl-1 (Homo sapiens, UniProt Q07820); type: functional
Sequence of Induced myeloid leukemia cell differentiation protein Mcl-1 (Q07820 whole entry): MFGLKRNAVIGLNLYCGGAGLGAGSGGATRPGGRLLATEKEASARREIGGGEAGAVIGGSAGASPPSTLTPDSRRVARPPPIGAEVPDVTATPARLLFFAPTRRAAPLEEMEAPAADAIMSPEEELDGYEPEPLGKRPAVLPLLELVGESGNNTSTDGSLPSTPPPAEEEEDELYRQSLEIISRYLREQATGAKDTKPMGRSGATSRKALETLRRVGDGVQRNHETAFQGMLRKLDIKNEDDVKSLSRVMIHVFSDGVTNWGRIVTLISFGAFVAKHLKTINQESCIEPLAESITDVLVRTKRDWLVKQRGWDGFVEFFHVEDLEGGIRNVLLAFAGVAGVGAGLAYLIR

[15] = HEK-293T viability loss after treatment – luminescence, T-cell screen hits, cytotoxicity control for TCR NF-kB inhibitor project, dose response (AID 489026); type: functional, cell-based;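 also: cells exposed to compound about 14 hours before the viability readout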
[16] = target: T1, Cytochrome P450 2C9; remark: listed apart in the source
[17] = system: H9c2; experiment: cells; type: functional, cell-based; settings: Rattus norvegicus, H9c2, Myocardium;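 also: confirmatory concentration-response retest of ultra-high-throughput screening hits for modulation of myocardial damage; cell death induced by hydrogen peroxide oxidative stress; compound pretreatment for 60 min then peroxide exposure for 2 h; potency is for protecting the cells against peroxide damage rather than for killing them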
[18] = blockers of HIV-1 envelope-mediated cell-cell fusion – cherry-pick, dose response (AID 652057); type: functional, cell-based

Sequence of FAD-linked sulfhydryl oxidase ALR (P55789 whole entry): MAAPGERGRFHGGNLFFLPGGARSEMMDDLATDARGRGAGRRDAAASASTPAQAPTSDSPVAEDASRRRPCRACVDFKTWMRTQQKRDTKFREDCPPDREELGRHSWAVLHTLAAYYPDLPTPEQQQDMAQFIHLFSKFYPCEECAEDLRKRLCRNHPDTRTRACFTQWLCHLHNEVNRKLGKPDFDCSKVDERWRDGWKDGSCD

AC50 [1]: 5.29 µM (active)
SMILES: Sc1nnc(-c2ccccn2)n1/N=C/c1ccc(-c2ccccc2Cl)o1
CC50 [2]: > 50 µM (active)

SMILES: COc1ccccc1/C=C1\CCC(CN(C)C)C1=O (centres undefined)
GI50 [3]: 0.608 µM (active)
GI50 [4]: 0.568 µM (active)
GI50 [5]: 2.05 µM (inactive)

SMILES: CC(=O)c1c(C)[nH]c(C(=O)OCC(=O)Nc2c(C)cccc2C)c1C
AC50 [6]: 3.02 µM (active)
AC50 [7]: 0.745 µM (active)

AC50 [8]: inconclusive
AC50 [9]: 22.4 µM (inconclusive)
SMILES: Cc1[nH]n(-c2ccccc2)c(=O)c1CCOC(=O)c1cccc(C(F)(F)F)c1

SMILES: C[C@@H]1CN([C@H](C)CO)C(=O)Cc2cc(NC(=O)Nc3ccc(C(F)(F)F)cc3)ccc2O[C@H]1CN(C)Cc1ccc(C(F)(F)F)cc1
AC50 [10]: 6.59 µM (active)

AC50 [1]: 21.6 µM (active)
SMILES: O=C(Nc1ccc(N2CCCCC2)cc1)c1cccnc1

AC50 [8]: inconclusive
AC50 [11]: 39.8 µM (inconclusive)
AC50 [12]: 39.8 µM (inconclusive)
SMILES: Cc1nc(NC(N)=Nc2ccccc2)nc2ccccc12

SMILES: C[C@H]1CN([C@@H](C)CO)C(=O)Cc2cc(N(C)C)ccc2O[C@H]1CN(C)Cc1ccc(C(=O)Nc2ccccc2N)cc1
AC50 [10]: 1.93 µM (active)

SMILES: O=C1NC(c2cccc3ccccc23)Nc2ccc(O)cc21 (centres undefined)
GI50 [3]: 19 µM (inactive)
GI50 [4]: 24.8 µM (inactive)
GI50 [5]: 36.7 µM (inactive)

AC50 [8]: inconclusive
AC50 [12]: 17.8 µM (inconclusive)
SMILES: CCN(CC)S(=O)(=O)c1ccc2c3c(cccc13)C(=O)S2

SMILES: CCCCC1=C(Br)C(=C(Br)Br)OC1=O
GI50 [3]: 0.505 µM (active)
GI50 [4]: 0.443 µM (active)
GI50 [5]: 1.96 µM (inactive)

SMILES: Cc1c2cc[n+](C)cc2c(C)c2c1[nH]c1ccc(O)cc12 [ELLIPTINIUM ACETATE]
GI50 [3]: 0.131 µM (active)
GI50 [4]: 1.92 µM (inactive)
GI50 [5]: 2.98 µM (inactive)

AC50 [13]: 1.7 µM (active)
SMILES: COc1ccc(NC(=O)/C(C#N)=C\c2ccc(-c3cccc(C(=O)O)c3C)o2)cc1

IC50 [14]: 1.4 µM (not active)
SMILES: CCN(c1ccc(NC(=O)COC(=O)c2cccs2)cc1)C(C)C

AC50 [13]: 0.541 µM (active)
SMILES: COc1ccc(-c2csc(N=C(N)N)n2)cc1

SMILES: Cc1ccc(/C=N/NC(=O)c2c(C)nc3ccc(Br)cn23)cc1
IC50 [15]: > 80 µM (inactive)

SMILES: C[C@H](CO)N1C[C@H](C)[C@@H](CN(C)Cc2ccc(Cl)c(Cl)c2)Oc2c(NC(=O)c3ccncc3)cccc2C1=O
AC50 [10]: 0.08 µM (active)

SMILES: COc1cccc2c1C(=O)c1c(O)c3c(c(O)c1C2=O)C[C@@](O)(C(C)=O)C[C@@H]3OC1CC(N(Cc2ccccc2)Cc2ccccc2)C(O)C(C)O1 (some centres undefined)
GI50 [3]: 0.675 µM (active)
GI50 [4]: 1.57 µM (inactive)
GI50 [5]: 2.92 µM (inactive)

AC50 [13]: 5.91 µM (active)
SMILES: Cc1nc2c(ccc3nsnc32)[nH]1

SMILES: CCOc1ccc(C(=O)Nc2cccc(-c3nc4cccnc4o3)c2)cc1Cl
AC50 [16]: 14.1 µM (inconclusive)
IC50 [17]: > 79 µM (inactive)
AC50 [11]: 14.1 µM (inconclusive)
AC50 [9]: 5.01 µM (inconclusive)
AC50 [12]: 6.31 µM (inconclusive)

AC50 [1]: 0.723 µM (active)
SMILES: O=S(=O)(Nc1ccc(N2CCCCC2)cc1)c1cccc2cccnc12

SMILES: COc1ccc([Si](C)(C)[C@@H]2[C@@H](CCO)O[C@]3(C(=O)N4c5c(cc(OC)cc53)C(C)=CC4(C)C)[C@H]2C)cc1
AC50 [6]: 16.8 µM (active)
AC50 [7]: 17.2 µM (active)
AC50 [18]: 11.8 µM (active)
